This passage reports IC50 results from patent publication US11198695B2, “Fused ring derivative having MGAT-2 inhibitory activity” (Shionogi & Co., Ltd., priority 2017, dated 2021).

The target of this assay is recombinant human MGAT2 (Homo sapiens (Human), UniProt Q3SYC2). Nature of the assay: Measurement of human MGAT2 inhibitory activity. In kind it is biochemical. The procedure, abridged:
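Membrane fraction of Sf9 cells expressing N-terminally Flag-tagged full-length human MGAT2, incubated 1 h at room temperature in 100 mmol/L phosphate pH 7.4 with 2 mmol/L DTT. The substrate solution held 30 μmol/L 2-oleoylglycerol and 10 μmol/L oleoyl-CoA. Diolein product was quantified by RapidFire ESI Q-TOF MS against diolein-d5 internal standard; % inhibition was set relative to with/without-enzyme controls.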

Setting [1] is: read-out: IC50 (concentration exhibiting 50% enzyme inhibition), Table 53.
Where [2] appears, read: read-out: IC50 (concentration exhibiting 50% enzyme inhibition), Table 52.

Structures are written as SMILES. Read-outs that look alike come from different tables or passages of the source.

Chain of recombinant human MGAT2 (Q3SYC2 whole entry): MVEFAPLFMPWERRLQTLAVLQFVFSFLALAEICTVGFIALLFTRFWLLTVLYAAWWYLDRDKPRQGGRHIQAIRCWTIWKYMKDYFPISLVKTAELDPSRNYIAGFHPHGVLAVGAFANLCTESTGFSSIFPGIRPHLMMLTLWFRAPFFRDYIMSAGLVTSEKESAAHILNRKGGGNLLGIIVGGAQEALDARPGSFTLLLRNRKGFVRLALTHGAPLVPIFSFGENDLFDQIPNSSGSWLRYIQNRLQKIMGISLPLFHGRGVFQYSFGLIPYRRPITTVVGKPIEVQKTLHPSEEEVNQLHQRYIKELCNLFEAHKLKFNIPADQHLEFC

Take `CS(=O)(=O)CC(=O)Nc1c2c(nn1CCCC(F)(F)F)C[C@]1(CCOc3cc(OCC(F)(F)F)ccc31)NC2=O` [II-65]: the IC50 under setting [1] came to 1.9 nM.

Regarding `CS(=O)(=O)CC(=O)Nc1c2c(nn1CCc1ccc(F)cc1)C[C@@]1(CCc3cc(OCC(F)(F)F)ccc31)NC2=O` [II-23], under setting [1], the IC50 worked out at 18 nM. Turning to `CS(=O)(=O)CC(=O)Nc1c2c(nn1-c1ccc(C3CC3)nn1)C[C@]1(CCc3cc(OCCCC(F)(F)F)ccc31)NC2=O` [II-259], the IC50 under setting [1] came out at 0.439 nM.

Turning to `CS(=O)(=O)CC(=O)Nc1c2c(nn1-c1ccccn1)C[C@@]1(CCc3cc(OCC(F)(F)F)ccc31)NC2=O` [Compound I-104], under setting [2], the IC50 worked out at 12 nM. Consider `CS(=O)(=O)CC(=O)Nc1c2c(nn1-c1ccc(C(F)(F)F)cn1)C[C@]1(CCc3cc(OCC(F)(F)F)ccc31)NC2=O` [Compound I-189], for which the IC50 under setting [2] was determined as 1.2 nM. On the same count and under the same terms, under `O=C1N[C@@]2(CCc3cc(OCC(F)(F)F)ccc32)Cc2nn(CCC3CC3)c(C(=O)NS(=O)(=O)C(F)F)c21` [Compound I-109] stands 6.1 nM.

Consider `O=C(Nc1c2c(nn1CCC1CC1)C[C@]1(CCc3cc(OCC(F)(F)F)ccc31)NC2=O)c1ncccn1` [Compound I-215], for which the IC50 under setting [2] turned out to be 420 nM. For the compound `O=C(Nc1c2c(nn1CCC1CC1)C[C@]1(CCc3cc(OCCCC(F)(F)F)ccc31)NC2=O)c1ccno1` [Compound I-18], the IC50 under setting [2] came out at 9.1 nM. Regarding `N#CCCNC(=O)c1c2c(nn1-c1ccc(C#N)cn1)C[C@]1(CCc3cc(OCC(F)(F)F)ccc31)NC2=O` [II-183], the IC50 under setting [1] came to 35.5 nM. In the case of `O=C1N[C@@]2(CCc3cc(OCC(F)(F)F)ccc32)Cc2nn(CCC3CC3)c(C(=O)Nc3ccccc3)c21` [Compound I-196], the IC50 under setting [2] was found to be 1000 nM.

As for `Cn1ccc(C(=O)Nc2c3c(nn2CCC2CC2)C[C@]2(CCc4cc(OCC(F)(F)F)ccc42)NC3=O)n1` [Compound I-232], under setting [2], the IC50 was 270 nM. For `Cc1ccc(-n2nc3c(c2C(=O)NCC2(C#N)CC2)C(=O)N[C@@]2(CCOc4cc(OCC(F)(F)F)ccc42)C3)nc1` [II-231], under setting [1], the IC50 came to 97.8 nM.

As to `O=C1N[C@@]2(CCc3cc(OCC(F)(F)F)ccc32)Cc2nn(CCC3CC3)c(C(=O)NS(=O)(=O)C3CCC3)c21` [Compound I-121], the IC50 under setting [2] was determined as 47 nM.

For `CS(=O)(=O)CC(=O)Nc1c2c(nn1-c1ccc(C#N)cn1)C[C@](c1ccc(OCC(F)(F)F)cc1)(C(F)(F)F)NC2=O` [II-17], the IC50 under setting [1] was 38 nM. For the compound `CS(=O)(=O)CC(=O)Nc1c2c(nn1CC1CCC(C(F)(F)F)CC1)C[C@]1(CCc3cc(OCCCC(F)(F)F)ccc31)NC2=O` (stereo partly shown) [Compound I-61], under setting [2], the IC50 is 340 nM.

Regarding `Cc1ccc(-n2nc3c(c2C(=O)NCC(N)=O)C(=O)N[C@@](c2ccc(OCC(F)(F)F)cc2F)(C(F)(F)F)C3)nc1` [II-241], the IC50 under setting [1] was 24.6 nM. On the same count and under the same terms, under `CS(=O)(=O)CC(=O)Nc1c2c(nn1CCC1CC1)C1(Cc3ccc(OCC(F)(F)F)cc3C1)NC2=O` (stereo not shown) [II-1] stands 46 nM. With `O=C1N[C@@]2(CCc3cc(OCC(F)(F)F)ccc32)Cc2nn(CCC3CC3)c(CNC(=O)C3CCCC3)c21` [Compound I-82], the IC50 under setting [2] turned out to be 230 nM.

As to `O=C(Nc1c2c(nn1CCC1CC1)C[C@]1(CCc3cc(OCC(F)(F)F)ccc31)NC2=O)c1cncnc1` [Compound I-216], the IC50 under setting [2] stood at 35 nM.

`N#Cc1ccc(-n2nc3c(c2C(=O)NCC2CC2)C(=O)N[C@@]2(CCc4cc(OCC(F)(F)F)ccc42)C3)nc1` [II-179]: the IC50 under setting [1] is 10.1 nM. Still for that read-out and setting: under `Cc1ccc(-n2nc3c(c2C(=O)NS(=O)(=O)C2CC2)C(=O)N[C@@](c2ccc(OCC(F)(F)F)cc2F)(C(F)(F)F)C3)nc1` [II-274] stands 6.67 nM. As for `Cc1ccc(-n2nc3c(c2C(=O)NCCS(N)(=O)=O)C(=O)N[C@@]2(CCOc4cc(OCC(F)(F)F)ccc42)C3)nc1` [II-204], under setting [1], the IC50 was 22.3 nM. As for `CS(=O)(=O)CC(=O)Nc1c2c(nn1CCC1CC1)C[C@@]1(CCc3cc(N4CC5(CCOCC5)C4)ccc31)NC2=O` [II-36], the IC50 under setting [1] was found to be 53 nM. Regarding `CS(=O)(=O)CC(=O)Nc1nn(CCCC(F)(F)F)c2c1C(=O)N[C@@]1(CCc3cc(OCCCC(F)(F)F)ccc31)C2` [Compound I-208], the IC50 under setting [2] is 250 nM.

Take `N#Cc1ccc(-n2nc3c(c2C(=O)NCC2CCO2)C(=O)N[C@@]2(CCc4cc(OCC(F)(F)F)ccc42)C3)nc1` (stereo partly shown) [II-187]: the IC50 under setting [1] amounted to 24.5 nM.

`CS(=O)(=O)CC(=O)Nc1c2c(nn1-c1ccc(C#N)cn1)C[C@]1(CCc3cc(Cl)ccc31)NC2=O` [II-75]: the IC50 under setting [1] came to 3.69 nM. In the case of `N#Cc1ccc(-n2nc3c(c2C(=O)NCCOC(F)(F)F)C(=O)N[C@@]2(CCc4cc(OCC(F)(F)F)ccc42)C3)nc1` [II-114], under setting [1], the IC50 was 60.3 nM. For `Cc1ccc(-n2nc3c(c2C(=O)NCC(F)(F)F)C(=O)N[C@@]2(CCOc4cc(OCC(F)(F)F)ccc42)C3)nc1` [II-227], under setting [1], the IC50 worked out at 96.4 nM. As for `CS(=O)(=O)CC(=O)Nc1nn(CCCc2ccccc2)c2c1C(=O)N[C@@]1(CCc3cc(OCCCC(F)(F)F)ccc31)C2` [Compound I-62], the IC50 under setting [2] came out at 250 nM. As to `CC(C)NC(=O)Nc1c2c(nn1CCC1CC1)C[C@]1(CCc3cc(OCCCC(F)(F)F)ccc31)NC2=O` [Compound I-14], the IC50 under setting [2] was found to be 380 nM. Consider `Cc1cc(-n2nc3c(c2NC(=O)CS(C)(=O)=O)C(=O)N[C@@]2(CCOc4cc(CCC(F)(F)F)ccc42)C3)no1` [II-267], for which the IC50 under setting [1] was 1 nM.

As to `O=C(COC(F)(F)F)Nc1c2c(nn1CCC1CC1)C[C@]1(CCc3cc(OCCCC(F)(F)F)ccc31)NC2=O` [Compound I-32], under setting [2], the IC50 was found to be 17 nM. Turning to `Cc1nocc1-c1ccc2c(c1)CC[C@@]21Cc2nn(CCC3CC3)c(NC(=O)CS(C)(=O)=O)c2C(=O)N1` [II-71], the IC50 under setting [1] worked out at 12.6 nM. As for `O=C1N[C@@]2(CCc3cc(OCC(F)(F)F)ccc32)Cc2nn(CCC3CC3)c(CNC(=O)C3(C(F)(F)F)CC3)c21` [Compound I-157], under setting [2], the IC50 was determined as 38 nM. With `CS(=O)(=O)CC(=O)Nc1c2c(nn1-c1ccc(C#N)cn1)C[C@]1(CCc3cc(N4CC(F)(F)C4)ccc31)NC2=O` [Compound I-163], the IC50 under setting [2] was determined as 3.6 nM. Regarding `N#Cc1ccc(-n2nc3c(c2C(=O)NCC(F)(F)F)C(=O)N[C@@]2(CCc4cc(OCC(F)(F)F)ccc42)C3)nc1` [II-124], the IC50 under setting [1] worked out at 19.6 nM. On to `CS(=O)(=O)CC(=O)Nc1c2c(nn1CCC1CC1)CC1(CN(c3ccc(C(F)(F)F)cc3)C1)NC2=O` [II-58], for which the IC50 under setting [1] came out at 16 nM.

In the case of `CS(=O)(=O)CC(=O)Nc1c2c(nn1Cc1ccc(C(F)(F)F)o1)C[C@]1(CCc3cc(OCCCC(F)(F)F)ccc31)NC2=O` [Compound I-173], under setting [2], the IC50 is 78 nM.

As to `N#Cc1ccc(-n2nc3c(c2C(=O)NCC2(O)COC2)C(=O)N[C@@]2(CCc4cc(OCC(F)(F)F)ccc42)C3)nc1` [II-118], under setting [1], the IC50 worked out at 6.26 nM. In the case of `N#Cc1ccc(-n2nc3c(c2C(=O)NS(=O)(=O)CCC(F)(F)F)C(=O)N[C@@]2(CCc4cc(OCC(F)(F)F)ccc42)C3)nc1` [II-217], the IC50 under setting [1] amounted to 68.9 nM. Consider `CS(=O)(=O)CC(=O)Nc1c2c(nn1-c1ccc(OC(F)F)cc1)C[C@]1(CCc3cc(OCC(F)(F)F)ccc31)NC2=O` [II-141], for which the IC50 under setting [1] is 12.8 nM.

Regarding `CS(=O)(=O)CC(=O)Nc1c2c(nn1-c1ccc(C#N)cn1)C[C@]1(CCc3cc(Br)ccc31)NC2=O` [II-30], the IC50 under setting [1] was 8.7 nM. `COCCCCn1nc2c(c1NC(=O)CS(C)(=O)=O)C(=O)N[C@@]1(CCc3cc(OCC(F)(F)F)ccc31)C2` [Compound I-251]: the IC50 under setting [2] stood at 490 nM. On the same count and under the same terms, for `Cn1cc(C(=O)Nc2c3c(nn2CCC2CC2)C[C@]2(CCc4cc(OCC(F)(F)F)ccc42)NC3=O)nn1` [Compound I-172] the value was 480 nM; for `CS(=O)(=O)CC(=O)Nc1c2c(nn1-c1ccc(Br)cn1)C[C@]1(CCc3cc(OCC(F)(F)F)ccc31)NC2=O` [Compound I-91], 1.2 nM. Turning to `CS(=O)(=O)CC(=O)Nc1c2c(nn1-c1ccccc1)C[C@]1(CCc3cc(OCC(F)(F)F)ccc31)NC2=O` [II-175], under setting [1], the IC50 was 25.4 nM. Same read-out and setting: for `N#Cc1ccc(-n2nc3c(c2C(=O)N[C@H]2CC[C@@H](O)C2)C(=O)N[C@@]2(CCc4cc(OCC(F)(F)F)ccc42)C3)nc1` [II-133] the value was 188 nM. Take `O=C1N[C@@]2(CCc3cc(OCC(F)(F)F)ccc32)Cc2nn(CCC3CC3)c(CNS(=O)(=O)C3CCOCC3)c21` [Compound I-142]: the IC50 under setting [2] worked out at 270 nM.

For the compound `Cc1cc(-n2nc3c(c2NC(=O)CS(C)(=O)=O)C(=O)N[C@@]2(CCc4cc(OCC(F)(F)F)ccc42)C3)ccc1F` [II-149], under setting [1], the IC50 came out at 9.01 nM. Turning to `Cn1c2c(c(NC(=O)CS(C)(=O)=O)c1-c1ccccc1)C(=O)N[C@@]1(CCc3cc(OCC(F)(F)F)ccc31)C2` [II-61], the IC50 under setting [1] was determined as 16.7 nM. For `CS(=O)(=O)CC(=O)Nc1c2c(nn1CCC1CC1)C[C@@]1(CCc3cc(N4CC5(COC5)C4)ccc31)NC2=O` [II-50], the IC50 under setting [1] stood at 200 nM.

On to `CS(=O)(=O)CC(=O)Nc1c2c(nn1CCCC(F)(F)F)C[C@]1(CCc3cc(OCC(F)(F)F)ccc31)NC2=O` [Compound I-193], for which, under setting [2], the IC50 came out at 6.1 nM. In the case of `CS(=O)(=O)CC(=O)Nc1c2c(nn1-c1ccc(C(F)(F)F)cc1)C[C@]1(CCc3cc(OCC(F)(F)F)ccc31)NC2=O` [Compound I-95], the IC50 under setting [2] came out at 5.1 nM. As for `CC(=O)NCC(=O)Nc1c2c(nn1CCC1CC1)C[C@]1(CCc3cc(OCCCC(F)(F)F)ccc31)NC2=O` [Compound I-28], the IC50 under setting [2] turned out to be 435 nM. As for `COc1ccc(C(=O)Nc2c3c(nn2CCC2CC2)C[C@]2(CCc4cc(OCCCC(F)(F)F)ccc42)NC3=O)cc1` [Compound I-174], under setting [2], the IC50 stood at 63.7 nM. In the case of `CS(=O)(=O)CC(=O)Nc1c2c(nn1CCCC(F)(F)F)C[C@@]1(NC2=O)c2ccc(OCC(F)(F)F)cc2CC1(F)F` [II-85], the IC50 under setting [1] is 45.5 nM. For `CS(=O)(=O)CC(=O)Nc1c2c(nn1-c1ccc(C#N)cn1)CC1(CN(c3nc(C(F)(F)F)cs3)C1)NC2=O` [II-78], the IC50 under setting [1] was 45 nM. For the compound `COCCCn1nc2c(c1NC(=O)CS(C)(=O)=O)C(=O)N[C@@]1(CCc3cc(OCCCC(F)(F)F)ccc31)C2` [Compound I-58], under setting [2], the IC50 was 5.5 nM.
